From ChEMBL document CHEMBL3352203, “Bioactive sulfur-containing sulochrin dimers and other metabolites from an Alternaria sp. isolate from a Hawaiian soil sample” (J Nat Prod, 2014)
Values after ≈ are worked out from the molar mass of the structure shown.

Tests used:
Staphylococcus aureus = experiment: Antibacterial activity against Staphylococcus aureus ATCC 700787 after 17 hrs; assay type: functional; settings: ATCC 700787, 17 h
[1] = Cytotoxicity against human MIAPaCa2 cells assessed as after 48 hrs by MTT assay; assay type: functional, cell-based; settings: MIA PaCa-2, 48 h

Row | MIC (Staphylococcus aureus) | SMILES | IC50 [1]
1 | 4.9 µM (≈ 3.25 µg/mL) | COC(=O)c1c(Sc2c(O)cc3oc4cc(C)cc(O)c4c(=O)c3c2C(=O)OC)c(O)cc(OC)c1C(=O)c1c(O)cc(C)cc1O | 30.3 µM
2 | 4.1 µM (≈ 2.85 µg/mL) | COC(=O)c1c(Sc2c(O)cc(OC)c(C(=O)c3c(O)cc(C)cc3O)c2C(=O)OC)c(O)cc(OC)c1C(=O)c1c(O)cc(C)cc1O | 50.8 µM
3 | 3.2 µM (≈ 2.02 µg/mL) | COC(=O)c1c(Sc2c(O)cc3oc4cc(C)cc(O)c4c(=O)c3c2C(=O)OC)c(O)cc2oc3cc(C)cc(O)c3c(=O)c12 | 29.3 µM
4 | 5 µM (≈ 1.62 µg/mL) | O=C(N[C@H](CO)[C@H](O)c1ccc([N+](=O)[O-])cc1)C(Cl)Cl [CHLORAMPHENICOL] | –
